Experimental data reported in US11613556B2, “Oxysterols and methods of use thereof” (Sage Therapeutics, Inc., priority 2016, dated 2023).

These molecules were tested against glutamate-activated channels of the GRIN1/2A subtype stably transfected in HEK 293 cells (Homo sapiens (Human), UniProt Q05586+Q12879) (assay: Automated patch-clamp system (QPatch HTX), percent potentiation at 1 μM). Settings: HEK293, 1 μM test compound, 300 μM NMDA with 8 μM glycine, HEK 293 GRIN1/2A, read-out: GluN2A PCA % potentiation at 1 μM.
Format: cell-based
Method: NMDA potentiation in mammalian cells which expressed NMDA receptors was assessed using the automatic patch-clamp system can be used determine the NAM activity of compounds as described below. An whole cell patch-clamp system can be used determine the PAM activity of compounds as described below.
Automated Patch-Clamp System (OPatch HTX):
In this study, HEK 293 cells stably transfected with glutamate-activated channels of the GRIN1/2A subtype will be used together with submaximal NMDA concentrations (300 μM NMDA, co-application with 8 μM Glycine) to investigate the negative allosteric modulation of the test compounds.
In general, cells will be passaged at a confluence of about 80% to […]. For electrophysiological measurements cells will be harvested at a confluence of about 80% to 90% from sterile culture flasks containing culture complete medium. Cells will be transferred as suspension in PBS to the QPatch 16X or QPatch HTX system to the centrifuge/washer directly.
Standard Laboratory Conditions: Cells will be incubated at 37° C. in a humidified atmosphere with 5% CO2 (rel. humidity about 95%).
Culture media: The cells will be continuously maintained in and passaged in sterile culture flasks containing a 1:1 mixture of Dulbecco's modified eagle medium and nutrient mixture F-12 (D-MEM/F-12 1×, liquid, with L-Glutamine) supplemented with 10% fetal bovine serum, 1% Penicillin/Streptomycin solution, and 50 μM AP-5 blocker.
Antibiotics: The complete medium as indicated above is supplemented with 100 μg/mL hygromycin, 15 μg/mL blasticidin and 1 μg/mL puromycin.
Induction of Expression: 2.5 μg/mL tetracycline is added 24 h before start of experiments.
Dose levels are in terms of test compounds, as supplied. Vehicle will be added to achieve a stock concentration of 10 mM (storage at −10° C. to −30° C.). A further stock solutions of 1.0 mM will be prepared in DMSO. Details of stock solution usage (thawing, dose formulations) will be documented in the raw data. The time period of stock solution usage will be detailed in the report.
Test Compound Concentrations
One test concentration of 1.0 μM will be tested.
All test solutions will be prepared by diluting the stock solutions with either Mg-free bath solution only or Mg-free bath solution containing NMDA (300 μM) and glycine (8.0 μM) shortly prior to the electrophysiological experiments and kept at room temperature (19° C. to 30° C.) when in use. 0.1% DMSO will be used as vehicle.
Frequency of preparation: For each test concentration, fresh solutions of test compounds will be prepared every day.
Stability of dose formulation: All preparation times will be documented in the raw data. Any observations regarding instability of test compounds will be mentioned in the raw data.
Storage of dose formulation: On the day of experimentation dose formulations will be maintained at room temperature (19° C. to 30° C.) when in use.
For preparing the experiments and for formation of the giga-ohm-seal, the following standard bath solution will be used:
Sodium Chloride: 137 mM; Potassium Chloride: 4 mM; Calcium Chloride: 1.8 mM; Magnesium Chloride: 1 mM; HEPES: 10 mM; D-Glucose: 10 mM; Cremophor: 0.02%; pH (NaOH): 7.4
The 1× bath solution will be prepared by diluting 10× bath solution without Glucose and 100× Glucose solution with water at least every 7 days. Both stock solutions have been prepared prior to the experimental start of the present study and stored at 1° C. to 9° C. (10× bath solution) or −10° C. to −30° (100× Glucose solution). The batch number(s) of the bath solution(s) used in the experiments will be documented in the raw data. When in use, the 1× bath solution will be kept at room temperature (19° C. to 30° C.). When not in use, the 1× bath solution will be stored at 1° C. to 9° C.
After the giga-seal was formed the following Mg-free bath solution will be used:
Sodium Chloride: 137 mM; Potassium Chloride: 4 mM; Calcium Chloride; 2.8 mM; HEPES: 10 mM; D-Glucose: 10 mM; Cremophor: 0.02%; pH (NaOH): 7.4 […]

Sequence of glutamate-activated channels of the GRIN1/2A subtype stably transfected in HEK 293 cells (Q12879 whole entry, looked up, other chains not shown): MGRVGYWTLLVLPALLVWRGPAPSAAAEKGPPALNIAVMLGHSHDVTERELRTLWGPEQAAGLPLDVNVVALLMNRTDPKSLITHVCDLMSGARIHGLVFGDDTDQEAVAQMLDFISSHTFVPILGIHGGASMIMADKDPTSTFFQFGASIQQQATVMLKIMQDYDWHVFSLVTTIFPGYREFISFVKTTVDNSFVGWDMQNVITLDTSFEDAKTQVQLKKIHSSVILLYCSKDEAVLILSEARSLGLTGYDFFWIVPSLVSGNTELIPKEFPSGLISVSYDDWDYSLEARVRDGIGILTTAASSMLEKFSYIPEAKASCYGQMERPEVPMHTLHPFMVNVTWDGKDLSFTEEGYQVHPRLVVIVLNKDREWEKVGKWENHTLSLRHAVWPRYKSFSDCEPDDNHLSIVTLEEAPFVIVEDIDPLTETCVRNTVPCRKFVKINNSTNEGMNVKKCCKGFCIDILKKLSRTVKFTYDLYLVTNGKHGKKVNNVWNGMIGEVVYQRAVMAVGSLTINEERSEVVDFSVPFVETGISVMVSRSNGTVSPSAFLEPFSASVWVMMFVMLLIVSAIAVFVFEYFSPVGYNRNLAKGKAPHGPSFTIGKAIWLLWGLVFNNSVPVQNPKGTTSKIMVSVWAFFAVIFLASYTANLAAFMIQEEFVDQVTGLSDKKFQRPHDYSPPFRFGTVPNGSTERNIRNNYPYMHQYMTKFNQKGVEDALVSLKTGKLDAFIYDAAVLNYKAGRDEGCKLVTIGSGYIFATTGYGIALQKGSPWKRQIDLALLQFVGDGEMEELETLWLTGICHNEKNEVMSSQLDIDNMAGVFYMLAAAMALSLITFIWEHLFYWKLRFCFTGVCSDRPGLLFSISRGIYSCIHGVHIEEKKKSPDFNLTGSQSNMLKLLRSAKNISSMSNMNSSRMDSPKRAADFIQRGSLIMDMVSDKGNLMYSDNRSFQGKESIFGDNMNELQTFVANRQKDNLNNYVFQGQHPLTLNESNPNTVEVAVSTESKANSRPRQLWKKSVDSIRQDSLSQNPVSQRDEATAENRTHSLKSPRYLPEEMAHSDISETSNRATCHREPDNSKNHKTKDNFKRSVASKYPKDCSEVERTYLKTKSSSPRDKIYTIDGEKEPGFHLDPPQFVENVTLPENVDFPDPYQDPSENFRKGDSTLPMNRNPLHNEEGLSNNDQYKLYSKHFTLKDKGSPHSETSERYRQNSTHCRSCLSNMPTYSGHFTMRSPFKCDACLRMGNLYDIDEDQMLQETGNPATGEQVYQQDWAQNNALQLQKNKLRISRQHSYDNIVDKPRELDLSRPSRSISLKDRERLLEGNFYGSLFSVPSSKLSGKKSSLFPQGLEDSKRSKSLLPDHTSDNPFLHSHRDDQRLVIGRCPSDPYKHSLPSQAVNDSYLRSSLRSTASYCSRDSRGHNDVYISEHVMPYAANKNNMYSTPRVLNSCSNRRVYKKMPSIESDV

Structure (SMILES)	activation at 1 µM [%]
CC[C@]1(O)CC[C@@]2(C)[C@@H](CC[C@@H]3[C@@H]2CC[C@]2(C)[C@@H]([C@H](C)[C@@H](O)C(C)C)CC[C@@H]32)C1 [Compound 65, (3S,5S,8R,9S,10S,13S,14S,17R)-3-ethyl-17-((2S,3S)-3-hydroxy-4-methylpentan-2-yl)-10,13-dimethylhexadecahydro-1H-cyclopenta[a]phenanthren-3-ol]	-40 to -10
CC[C@]1(O)CC[C@@]2(C)C(=CC[C@H]3[C@@H]4CC[C@H]([C@H](C)[C@@H](O)CC5(C)COC5)[C@@]4(C)CC[C@@H]32)C1 [Compound 70, (3S,8S,9S,10R,13S,14S,17R)-3-ethyl-17-((2S,3S)-3-hydroxy-4-(3-methyloxetan-3-yl)butan-2-yl)-10,13-dimethyl-2,3,4,7,8,9,10,11,12,13,14,15,16,17-tetradecahydro-1H-cyclopenta[a]phenanthren-3-ol]	-40 to -10
COC[C@]1(O)CC[C@@]2(C)[C@H](CC[C@@H]3[C@@H]2CC[C@]2(C)[C@@H]([C@H](C)[C@H](O)C(F)(F)F)CC[C@@H]32)C1 [Compound 71, (3S,5R,8R,9S,10S,13S,14S,17R)-3-(methoxymethyl)-10,13-dimethyl-17-((2S,3S)-4,4,4-trifluoro-3-hydroxybutan-2-yl)hexadecahydro-1H-cyclopenta[a]phenanthren-3-ol]	-40 to -10
CC(C)CC[C@H](O)[C@@H](C)[C@H]1CC[C@H]2[C@@H]3CC[C@H]4C[C@@](C)(O)CC[C@@H]4[C@H]3CC[C@]12C [Compound 74, (3S,5S,8R,9R,10S,13S,14S,17R)-17-((2S,3S)-3-hydroxy-6-methylheptan-2-yl)-3,13-dimethylhexadecahydro-1H-cyclopenta[a]phenanthren-3-ol]	-40 to -10
CC(C)CC[C@H](O)[C@@H](C)[C@H]1CC[C@H]2[C@@H]3CC=C4C[C@@](C)(O)CC[C@@H]4[C@H]3CC[C@]12C [Compound 80, (3S,8R,9S,10R,13S,14S,17R)-17-((2S,3S)-3-hydroxy-6-methylheptan-2-yl)-3,13-dimethyl-2,3,4,7,8,9,10,11,12,13,14,15,16,17-tetradecahydro-1H-cyclopenta[a]phenanthren-3-ol]	-40 to -10
CC[C@]1(O)CC[C@@]2(C)C(=CC[C@H]3[C@@H]4CC[C@H]([C@H](C)[C@H](O)C(F)(F)F)[C@@]4(C)CC[C@@H]32)C1 [Compound 81, (3S,8S,9S,10R,13S,14S,17R)-3-ethyl-10,13-dimethyl-17-((2S,3S)-4,4,4-trifluoro-3-hydroxybutan-2-yl)-2,3,4,7,8,9,10,11,12,13,14,15,16,17-tetradecahydro-1H-cyclopenta[a]phenanthren-3-ol]	-40 to -10
CC(C)CC[C@@H](O)[C@@H](C)[C@H]1CC[C@H]2[C@@H]3CC=C4C[C@@](C)(O)CC[C@@H]4[C@H]3CC[C@]12C [Compound 83, (3S,8R,9S,10R,13S,14S,17R)-17-((2S,3R)-3-hydroxy-6-methylheptan-2-yl)-3,13-dimethyl-2,3,4,7,8,9,10,11,12,13,14,15,16,17-tetradecahydro-1H-cyclopenta[a]phenanthren-3-ol]	-40 to -10
CC(C)CC[C@@H](O)[C@@H](C)[C@H]1CC[C@H]2[C@@H]3CC[C@H]4C[C@](O)(C(F)(F)F)CC[C@]4(C)[C@H]3CC[C@]12C [Compound 85, (3S,5S,8R,9S,10S,13S,14S,17R)-17-((2S,3R)-3-hydroxy-6-methylheptan-2-yl)-10,13-dimethyl-3-(trifluoromethyl)hexadecahydro-1H-cyclopenta[a]phenanthren-3-ol]	-10 to 10
CC[C@]1(O)CC[C@@]2(C)[C@@H](CC[C@@H]3[C@@H]2CC[C@]2(C)[C@@H]([C@H](C)[C@@H](O)C4CCOCC4)CC[C@@H]32)C1 [Compound 86, (3S,5S,8R,9S,10S,13S,14S,17R)-3-ethyl-17-((1S,2S)-1-hydroxy-1-(tetrahydro-2H-pyran-4-yl)propan-2-yl)-10,13-dimethylhexadecahydro-1H-cyclopenta[a]phenanthren-3-ol]	-40 to -10
CC(C)CC[C@@H](O)[C@@H](C)[C@H]1CC[C@H]2[C@@H]3CC[C@H]4C[C@@](C)(O)CC[C@@H]4[C@H]3CC[C@]12C [Compound 88, (3S,5S,8R,9R,10S,13S,14S,17R)-17-((2S,3R)-3-hydroxy-6-methylheptan-2-yl)-3,13-dimethylhexadecahydro-1H-cyclopenta[a]phenanthren-3-ol]	-40 to -10
CC[C@]1(O)CC[C@@]2(C)[C@@H](CC[C@@H]3[C@@H]2CC[C@]2(C)[C@@H]([C@H](C)[C@H](O)C4CC4)CC[C@@H]32)C1 [Compound 90, (3S,5S,8R,9S,10S,13S,14S,17R)-17-((1R,2S)-1-cyclopropyl-1-hydroxypropan-2-yl)-3-ethyl-10,13-dimethylhexadecahydro-1H-cyclopenta[a]phenanthren-3-ol]	-10 to 10
C[C@H]([C@H](C)O)[C@H]1CC[C@H]2[C@@H]3CC[C@H]4C[C@](O)(C(F)(F)F)CC[C@]4(C)[C@H]3CC[C@]12C [Compound 91, (3S,5S,8R,9S,10S,13S,14S,17R)-17-((2S,3S)-3-hydroxybutan-2-yl)-10,13-dimethyl-3-(trifluoromethyl)hexadecahydro-1H-cyclopenta[a]phenanthren-3-ol]	-40 to -10
COC[C@]1(O)CC[C@@]2(C)C(=CC[C@H]3[C@@H]4CC[C@H]([C@H](C)[C@@H](O)C(F)(F)F)[C@@]4(C)CC[C@@H]32)C1 [Compound 95, (3S,8S,9S,10R,13S,14S,17R)-3-(methoxymethyl)-10,13-dimethyl-17-((2S,3R)-4,4,4-trifluoro-3-hydroxybutan-2-yl)-2,3,4,7,8,9,10,11,12,13,14,15,16,17-tetradecahydro-1H-cyclopenta[a]phenanthren-3-ol]	< -40
C[C@@H]([C@H]1CC[C@H]2[C@@H]3CC[C@@H]4C[C@@](C)(O)CC[C@]4(C)[C@H]3CC[C@]12C)[C@H](O)C(F)(F)F [Compound 97, (3S,5R,8R,9S,10S,13S,14S,17R)-3,10,13-trimethyl-17-((2S,3S)-4,4,4-trifluoro-3-hydroxybutan-2-yl)hexadecahydro-1H-cyclopenta[a]phenanthren-3-ol]	-40 to -10
